In patent publication US20240208983A1, “1,2,4-TRIAZOLO[4,3-A]PYRIDINE DERIVATIVES AS NEGATIVE ALLOSTERIC MODULATORS OF METABOTROPIC GLUTAMATE RECEPTOR 2” (Vanderbilt University, priority 2021, published 2024):
Read-outs that look alike come from different tables or passages of the source.

Key:
group II mGlu receptors = conditions: cited from earlier work
human mGlu2 = molecular target: T1, human mGlu2 (Homo sapiens, UniProt Q14416); experiment: mGlu2 GIRK cell-based thallium flux assay; conditions: HEK-293 co-expressing human mGlu2 and GIRK; EC80 glutamate
T1 construct: expressed in transfected cells; host or cells: HEK-293
Experimental: (§1) Human embryonic kidney (HEK-293) cell lines stably co-expressing human mGlu2 and G protein-coupled inwardly rectifying potassium (GIRK) channels, or human mGlu3 and GIRK, were used for in vitro evaluation of compound activity through thallium flux assays.
(§2) The day before the assay, cells from cell lines co-expressing human mGlu2 or mGlu3 and GIRK, as described above, were plated in black-walled, clear-bottomed, amine-coated 384-well plates in 20 μL of assay medium (DMEM containing 10% FBS, 1 M HEPES, 100 mM sodium pyruvate) at a density of 15,000 cells/well and stored at 37° C. in the presence of 5% CO2. On the day of the assay, medium was removed and replaced with assay buffer (Hanks balanced salt solution, 20 mM HEPES, 4.16 mM sodium bicarbonate, pH 7.2) containing 0.328 μM FluoZin-2 AM dye. The dye was initially made up as a 2.85 mM stock in DMSO and diluted 1:1 with 10% pluronic acid before adding to the buffer. Cells were then incubated for one hour at room temperature. After dye-loading, excess extracellular dye was removed by exchanging the dye solution with assay buffer resulting in 20 μL of buffer in each well. After a ten-minute rest period, cell plates were loaded into a Hamamatsu μCell kinetic imaging plate reader to monitor fluorescence using 470 nm excitation and 540 nm emission settings.
(§3) After collection of baseline fluorescence, 20 μL of compound solution prepared as a concentration response series in assay buffer was added. The concentration series was created from a 10 mM DMSO compound stock by performing a 1:3 serial dilution in DMSO followed by a 1:167 dilution of each DMSO solution in buffer. […] Multiple reference wells containing no compound received either no glutamate (for a baseline reference), EC80 glutamate, or ECmax glutamate (for normalization to maximum response). Signal was monitored an additional 2.5 minutes after the glutamate addition. Fluorescence was measured throughout the experiment at a frequency of 1 measurement per every 2 seconds before the glutamate addition and a frequency of 1 measurement per every 1 second after the glutamate addition. Each compound concentration series occurred one time in each plate, and replicates from two or three plates were used in each experimental run. Thallium solutions were handled and disposed of according to guidelines from the Vanderbilt University Chemical Safety department.
(§4) Data were normalized using a static ratio function (F/F0) by dividing every fluorescent measurement by the initial fluorescent value for the corresponding well. The increase in signal resulting from the glutamate/thallium addition of the second add was measured by determining the slope from 3 seconds to 13 seconds after the addition. The average of all baseline slopes (no compound, no glutamate) was determined and this value was subtracted from all other slope values. The average of all ECmax slopes was determined and this value was used to normalize the baseline-corrected slopes to a percent max value (% Emax). The % Emax values for each compound series were plotted versus the log of the concentration and fit to a 4-parameter logistical equation with no fixed parameters.
(§5) Potency is reported as the IC50 resulting from the curve fit.

human mGlu3 = molecular target: T2, human mGlu3 (Homo sapiens, UniProt Q14832); experiment: mGlu3 GIRK cell-based thallium flux assay; conditions: HEK-293 co-expressing human mGlu3 and GIRK; EC80 glutamate
T2 construct: expressed in transfected cells; host or cells: HEK-293
Experimental: as §1, §2, §3, §4, §5

normal animals [1] = conditions: cited from earlier work
[2] = system: Aβ-induced neurodegeneration; conditions: cited from earlier work
normal animals [3] = conditions: cited from earlier work; remark: listed apart in the source
Helpless (H) mice = conditions: cited from earlier work; for activity in the tail suspension test: Helpless (H) mice
mice = conditions: treated mice; cited from earlier work
[4] = system: central mGlu2 and mGlu3 receptors; conditions: in vivo; cited from earlier work
C57Bl6/J mice = conditions: cited from earlier work
[5] = system: olfactory bulbectomized rats; conditions: repeated administration for 14 days; cited from earlier work
[6] = treatment for 7 days; cited from earlier work
[7] = in vivo; cited from earlier work
[8] = system: social isolation-reared mice; conditions: cited from earlier work

T2 sequence (Q14832 23-879): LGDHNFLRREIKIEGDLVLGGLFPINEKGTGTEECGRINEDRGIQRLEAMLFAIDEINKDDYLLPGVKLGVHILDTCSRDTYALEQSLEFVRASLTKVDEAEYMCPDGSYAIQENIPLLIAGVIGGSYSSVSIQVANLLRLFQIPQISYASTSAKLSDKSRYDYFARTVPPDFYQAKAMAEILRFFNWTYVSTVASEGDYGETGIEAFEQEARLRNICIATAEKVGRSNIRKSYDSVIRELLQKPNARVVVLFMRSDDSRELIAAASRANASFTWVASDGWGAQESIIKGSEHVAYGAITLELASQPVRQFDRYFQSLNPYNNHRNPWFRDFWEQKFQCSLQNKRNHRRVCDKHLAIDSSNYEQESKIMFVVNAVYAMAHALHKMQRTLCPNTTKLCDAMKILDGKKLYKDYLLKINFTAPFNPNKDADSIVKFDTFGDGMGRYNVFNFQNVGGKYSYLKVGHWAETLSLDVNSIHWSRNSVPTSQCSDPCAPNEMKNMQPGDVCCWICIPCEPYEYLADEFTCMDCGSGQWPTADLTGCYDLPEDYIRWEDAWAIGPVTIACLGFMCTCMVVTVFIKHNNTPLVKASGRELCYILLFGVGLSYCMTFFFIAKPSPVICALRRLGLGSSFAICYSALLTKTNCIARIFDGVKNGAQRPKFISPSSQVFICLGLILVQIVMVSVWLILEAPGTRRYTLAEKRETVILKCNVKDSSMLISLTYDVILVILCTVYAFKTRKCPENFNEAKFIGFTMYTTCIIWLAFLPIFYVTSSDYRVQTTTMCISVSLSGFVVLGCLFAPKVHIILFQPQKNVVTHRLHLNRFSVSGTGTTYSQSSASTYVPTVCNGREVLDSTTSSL
T1 sequence (Q14416 19-872): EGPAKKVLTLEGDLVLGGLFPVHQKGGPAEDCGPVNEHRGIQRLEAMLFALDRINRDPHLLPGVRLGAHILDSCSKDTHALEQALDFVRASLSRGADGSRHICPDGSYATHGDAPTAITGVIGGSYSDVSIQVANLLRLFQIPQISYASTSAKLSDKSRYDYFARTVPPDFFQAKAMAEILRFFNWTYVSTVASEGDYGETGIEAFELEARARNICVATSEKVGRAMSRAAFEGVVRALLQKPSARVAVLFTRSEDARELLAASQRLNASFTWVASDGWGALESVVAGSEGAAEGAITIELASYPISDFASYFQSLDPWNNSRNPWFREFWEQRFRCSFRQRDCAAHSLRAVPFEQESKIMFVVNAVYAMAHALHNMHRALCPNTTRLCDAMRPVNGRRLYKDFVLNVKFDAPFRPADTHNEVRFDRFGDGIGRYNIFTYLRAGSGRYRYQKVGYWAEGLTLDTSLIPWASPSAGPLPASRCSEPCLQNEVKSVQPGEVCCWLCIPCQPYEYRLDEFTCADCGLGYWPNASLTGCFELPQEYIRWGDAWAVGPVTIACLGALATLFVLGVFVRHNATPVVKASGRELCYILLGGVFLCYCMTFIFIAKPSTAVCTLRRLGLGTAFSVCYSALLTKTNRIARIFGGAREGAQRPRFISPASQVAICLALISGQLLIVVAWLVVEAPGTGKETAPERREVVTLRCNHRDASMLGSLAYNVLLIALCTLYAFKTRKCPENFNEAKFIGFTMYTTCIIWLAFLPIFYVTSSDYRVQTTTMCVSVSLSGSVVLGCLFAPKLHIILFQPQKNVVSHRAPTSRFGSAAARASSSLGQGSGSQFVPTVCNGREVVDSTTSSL

SMILES: CCCCCCCOC(=O)[C@@]1(F)[C@@H]2C[C@@H](OCc3ccc(Cl)c(Cl)c3)[C@@](N)(C(=O)O)[C@@H]21 [BCI-838]
- duration of inhibition of group II mGlu receptors by brain concentration of active metabolite BCI-632 (group II mGlu receptors; once-daily oral dosing): 22 h
- Dutch APP transgene-associated learning and memory impairment (group II mGlu receptors; three months of treatment): reversed
- anxiolytic effects (group II mGlu receptors; three months of treatment): provided anxiolytic effects
- levels of monomeric and oAβ peptides in the hippocampus and cortex (group II mGlu receptors; three months of treatment, two AD mouse models): decreased
- hippocampal progenitor cell proliferation (group II mGlu receptors; wild-type and Alzheimer's diseased mice, 3 months): stimulated

SMILES: Cn1ccc(COc2cc3n[nH]c(=O)n3cc2-c2ccc(F)cc2)n1 [Compound 1, 6-(4-fluorophenyl)-7-((1-methyl-1H-pyrazol-3-yl)methoxy)-[1,2,4]triazolo[4,3-a]pyridin-3(2H)-one]
- IC50 (human mGlu2): 771 nM
- Human mGlu3 GIRK IC50 (human mGlu3): Inactive

SMILES: Cc1nc(COc2cc3n[nH]c(=O)n3cc2-c2ccc(F)cc2)cs1 [Compound 3, 6-(4-fluorophenyl)-7-((2-methylthiazol-4-yl)methoxy)-[1,2,4]triazolo[4,3-a]pyridin-3(2H)-one]
- IC50 (human mGlu2): 104 nM
- Human mGlu3 GIRK IC50 (human mGlu3): Inactive

SMILES: Cc1csc(COc2cc3n[nH]c(=O)n3cc2-c2ccc(F)cc2)n1 [Compound 6, 6-(4-fluorophenyl)-7-((4-methylthiazol-2-yl)methoxy)-[1,2,4]triazolo[4,3-a]pyridin-3(2H)-one]
- IC50 (human mGlu2): 169 nM
- Human mGlu3 GIRK IC50 (human mGlu3): Inactive

SMILES: COc1ccc(-c2cn3c(=O)[nH]nc3cc2OCc2ccn(C)n2)c(F)c1 [Compound 7, 6-(2-fluoro-4-methoxyphenyl)-7-((1-methyl-1H-pyrazol-3-yl)methoxy)-[1,2,4]triazolo[4,3-a]pyridin-3(2H)-one]
- IC50 (human mGlu2): 89 nM
- Human mGlu3 GIRK IC50 (human mGlu3): Inactive

SMILES: COc1ccc(-c2cn3c(=O)[nH]nc3cc2OCc2csc(C)n2)c(F)c1 [Compound 8, 6-(2-fluoro-4-methoxyphenyl)-7-((2-methylthiazol-4-yl)methoxy)-[1,2,4]triazolo[4,3-a]pyridin-3(2H)-one]
- IC50 (human mGlu2): 54.2 nM
- Human mGlu3 GIRK IC50 (human mGlu3): Inactive

SMILES: COc1ccc(-c2cn3c(=O)[nH]nc3cc2OCc2nccn2C)c(F)c1 [Compound 9, 6-(2-fluoro-4-methoxyphenyl)-7-((1-methyl-1H-imidazol-2-yl)methoxy)-[1,2,4]triazolo[4,3-a]pyridin-3(2H)-one]
- IC50 (human mGlu2): 216 nM
- Human mGlu3 GIRK IC50 (human mGlu3): Inactive

SMILES: COc1ccc(-c2cn3c(=O)[nH]nc3cc2OCc2cc(C)n(C)n2)c(F)c1 [Compound 10, 7-((1,5-dimethyl-1H-pyrazol-3-yl)methoxy)-6-(2-fluoro-4-methoxyphenyl)-[1,2,4]triazolo[4,3-a]pyridin-3(2H)-one]
- IC50 (human mGlu2): 119 nM
- Human mGlu3 GIRK IC50 (human mGlu3): Inactive

SMILES: COc1ccc(-c2cn3c(=O)[nH]nc3cc2OCc2ccn(C)n2)cc1 [Compound 11, 6-(4-methoxyphenyl)-7-((1-methyl-1H-pyrazol-3-yl)methoxy)-[1,2,4]triazolo[4,3-a]pyridin-3(2H)-one]
- IC50 (human mGlu2): 85.8 nM
- Human mGlu3 GIRK IC50 (human mGlu3): Inactive

SMILES: N[C@](CC1c2ccccc2Oc2ccccc21)(C(=O)O)[C@H]1C[C@@H]1C(=O)O [LY341495]
- Antidepressant-like effects in rat FST (normal animals [1]): Antidepressant-like effects
- amplification of Aβ-induced neurodegeneration by LY566332 [2]: prevented
- Antidepressant-like effects in mouse TST (normal animals [3]): Antidepressant-like effects
- activity in the tail suspension test (Helpless (H) mice): active
- antidepressant effect in helpless mice (Helpless (H) mice; acute administration): potent antidepressant effect
- marble-burying behavior (mice): significantly reduce marble-burying behavior
- hypolocomotor effect of mGlu2/3 agonist (LY379268) [4]: achieved the same result
- immobility time in the FST (C57Bl6/J mice): dose-dependently reduced

SMILES: CCS(=O)(=O)N(Cc1cccnc1)c1cccc(-c2ccc(C#N)cc2)c1 [LY566332]
- Aβ-induced neurodegeneration [2]: amplified

SMILES: N[C@]1(C(=O)O)[C@H]2[C@@H](C[C@H]1OCc1ccc(Cl)c(Cl)c1)[C@]2(F)C(=O)O [MGS0039]
- hyperactivity in the open field test [5]: attenuated the hyperactivity
- learning deficit in the passive avoidance test [5]: attenuated the learning deficit
- Antidepressant-like effects in rat FST (normal animals [1]): Antidepressant-like effects
- Antidepressant-like effects in mouse TST (normal animals [3]): Antidepressant-like effects
- number of escape failures [6]: significantly reduced
- freezing behavior [7]: significantly decreased
- marble-burying behavior (mice): reduced marble-burying behavior in a significant and dose dependent manner
- spontaneous locomotor activity (mice): no significant change
- immobility in the FST [8]: reversed the increased immobility

SMILES: Cc1cc(-c2cccc(C3=Nc4cc(C)c(C(F)(F)F)cc4NC(=O)C3)c2)cc(C)n1 [RO4491533]
- activity in the tail suspension test (Helpless (H) mice): active
- hypolocomotor effect of mGlu2/3 agonist (LY379268) [4]: reversed the hypolocomotor effect
- immobility time in the FST (C57Bl6/J mice): dose-dependently reduced

SMILES: CN1C(=O)CN=C(c2ccccc2)c2cc(Cl)ccc21 [diazepam]
- freezing behavior [7]: significantly decreased

SMILES: CNCCC(Oc1ccc(C(F)(F)F)cc1)c1ccccc1 (centres unmarked) [fluoxetine]
- antidepressant effect in helpless mice (Helpless (H) mice; chronic (21 days) treatment): full antidepressant effect
